From patent publication US12581252B2, “Substituted pyrrolo[3,4-b]pyridines as PI3K-α inhibitors” (Relay Therapeutics, Inc., priority 2020, dated 2026)
pIC50: −log10 of the molar value.

Target: H1047R PIK3CA enzyme (Homo sapiens, UniProt P42336, H1047R)
Assay: ADP-Glo Biochemical PIK3CA Kinase Assay

Sequence of H1047R PIK3CA enzyme (P42336 whole entry H1047R): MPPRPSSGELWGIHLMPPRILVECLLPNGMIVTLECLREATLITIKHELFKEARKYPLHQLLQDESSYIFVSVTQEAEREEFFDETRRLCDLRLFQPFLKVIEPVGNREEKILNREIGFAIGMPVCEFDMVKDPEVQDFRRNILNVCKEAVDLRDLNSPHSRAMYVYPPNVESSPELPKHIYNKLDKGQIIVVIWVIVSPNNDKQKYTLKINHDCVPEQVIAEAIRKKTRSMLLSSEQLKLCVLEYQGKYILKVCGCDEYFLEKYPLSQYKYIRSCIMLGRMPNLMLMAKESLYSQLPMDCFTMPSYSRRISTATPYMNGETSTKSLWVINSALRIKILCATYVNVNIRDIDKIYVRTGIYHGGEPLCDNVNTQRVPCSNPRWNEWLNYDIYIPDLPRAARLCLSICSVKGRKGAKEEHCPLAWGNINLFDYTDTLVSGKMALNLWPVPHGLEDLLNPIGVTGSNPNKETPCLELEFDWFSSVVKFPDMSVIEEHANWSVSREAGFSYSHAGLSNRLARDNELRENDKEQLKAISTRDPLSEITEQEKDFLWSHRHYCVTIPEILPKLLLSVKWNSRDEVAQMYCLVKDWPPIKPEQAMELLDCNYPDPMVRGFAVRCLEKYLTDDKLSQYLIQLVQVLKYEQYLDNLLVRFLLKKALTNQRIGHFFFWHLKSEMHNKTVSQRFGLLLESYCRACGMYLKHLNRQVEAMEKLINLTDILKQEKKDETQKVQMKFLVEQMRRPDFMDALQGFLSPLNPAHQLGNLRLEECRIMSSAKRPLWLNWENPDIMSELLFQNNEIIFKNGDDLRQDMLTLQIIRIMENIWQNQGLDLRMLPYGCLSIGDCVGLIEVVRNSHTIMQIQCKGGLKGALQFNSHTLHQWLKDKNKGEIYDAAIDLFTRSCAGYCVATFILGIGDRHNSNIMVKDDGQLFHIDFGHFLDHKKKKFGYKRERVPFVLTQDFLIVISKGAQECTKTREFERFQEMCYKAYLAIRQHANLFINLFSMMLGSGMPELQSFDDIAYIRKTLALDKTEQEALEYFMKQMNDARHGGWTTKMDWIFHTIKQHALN
Sequence of H1047R PIK3CA enzyme (P27986 whole entry partner): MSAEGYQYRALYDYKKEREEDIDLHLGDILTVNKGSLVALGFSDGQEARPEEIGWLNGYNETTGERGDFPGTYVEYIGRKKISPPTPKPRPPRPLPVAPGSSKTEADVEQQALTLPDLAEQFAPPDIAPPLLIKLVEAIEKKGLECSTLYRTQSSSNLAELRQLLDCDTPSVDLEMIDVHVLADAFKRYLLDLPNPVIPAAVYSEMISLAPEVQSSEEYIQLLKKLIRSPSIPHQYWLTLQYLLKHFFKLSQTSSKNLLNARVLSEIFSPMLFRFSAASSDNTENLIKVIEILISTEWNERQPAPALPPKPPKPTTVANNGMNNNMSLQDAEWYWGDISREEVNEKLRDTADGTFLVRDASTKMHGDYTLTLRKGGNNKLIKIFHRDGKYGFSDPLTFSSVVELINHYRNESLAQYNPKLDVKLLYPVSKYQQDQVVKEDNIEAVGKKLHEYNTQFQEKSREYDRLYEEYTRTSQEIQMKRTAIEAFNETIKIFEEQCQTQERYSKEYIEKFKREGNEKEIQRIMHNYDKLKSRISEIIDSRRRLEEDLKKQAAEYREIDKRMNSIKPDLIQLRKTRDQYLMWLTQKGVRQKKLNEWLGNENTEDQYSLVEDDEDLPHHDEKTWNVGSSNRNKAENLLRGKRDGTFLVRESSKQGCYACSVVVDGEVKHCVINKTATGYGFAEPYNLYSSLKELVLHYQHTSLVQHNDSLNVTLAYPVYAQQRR

| Compound | pIC50 |
| --- | --- |
| COCc1cc(NC(=O)c2cc(F)cc(C(F)(F)F)c2)c2c(c1)C(=O)N[C@@H]2c1cc(F)ccc1Cl [Compound I-690] | 6.30 to 7.00 |
| Cc1ccccc1C1NC(=O)c2cc(C(F)F)cc(NC(=O)c3cc(F)cc(C(F)(F)F)c3)c21 (stereo not shown) [Compound I-692] | 6.30 to 7.00 |
| O=C(Nc1cc(Br)cc2c1C(c1cc(F)ccc1Cl)NC2=O)c1cc(Cl)cc(F)c1Cl (stereo not shown) [Compound I-694] | 5.00 to 6.00 |
| N#CC1(CNc2cc(NC(=O)c3cc(F)cc(C(F)(F)F)c3)c3c(c2)C(=O)NC3c2cc(F)ccc2Cl)CC1 (stereo not shown) [Compound I-695] | ≥ 7.00 |
| CC(C)(O)Cc1cc(F)cc(C(=O)Nc2cc(CC(C)(C)O)cc3c2C(c2cc(F)ccc2Cl)NC3=O)c1 (stereo not shown) [Compound I-696] | 4.00 to 5.00 |
| CCOC(=O)Cc1cc(F)cc(C(=O)Nc2cc(CC(=O)OCC)cc3c2C(c2cc(F)ccc2Cl)NC3=O)c1 (stereo not shown) [Compound I-697] | 5.00 to 6.00 |
| O=C1NC(c2cc(F)ccc2Cl)c2c(NC(=O)N3CCOCC(F)(F)C3)cc(Br)cc21 (stereo not shown) [Compound I-698] | 4.00 to 5.00 |
| CC(C)n1cc(-c2cc(NC(=O)c3cc(F)cc(C(F)(F)F)c3)c3c(c2)C(=O)NC3c2cc(F)ccc2Cl)ccc1=O (stereo not shown) [Compound I-699] | ≥ 7.00 |
| O=C(Nc1cc(-c2ccc(=O)n(C3CC3)c2)cc2c1C(c1cc(F)ccc1Cl)NC2=O)c1cc(F)cc(C(F)(F)F)c1 (stereo not shown) [Compound I-700] | ≥ 7.00 |
| CCn1cc(-c2cc(NC(=O)c3cc(F)cc(C(F)(F)F)c3)c3c(c2)C(=O)N[C@@H]3c2cc(F)ccc2Cl)ccc1=O [Compound I-703] | 4.00 to 5.00 |
| CCn1cc(-c2cc(NC(=O)c3cc(F)cc(C(F)(F)F)c3)c3c(c2)C(=O)N[C@H]3c2cc(F)ccc2Cl)ccc1=O [Compound I-704] | ≥ 7.00 |
| COc1ccc(-c2cc(NC(=O)c3cc(F)cc(C(F)(F)F)c3)c3c(c2)C(=O)NC3c2cc(F)ccc2Cl)cn1 (stereo not shown) [Compound I-705] | ≥ 7.00 |
| O=C(Nc1cc(CC2(O)CCC2)cc2c1C(c1cc(F)ccc1Cl)NC2=O)c1cc(F)cc(C(F)(F)F)c1 (stereo not shown) [Compound I-706] | ≥ 7.00 |
| O=C(Nc1cc(NCCO)cc2c1C(c1cc(F)ccc1Cl)NC2=O)c1cc(F)cc(C(F)(F)F)c1 (stereo not shown) [Compound I-707] | ≥ 7.00 |
| CC(=O)COc1cc(NC(=O)c2cc(F)cc(C(F)(F)F)c2)c2c(c1)C(=O)NC2c1cc(F)ccc1Cl (stereo not shown) [Compound I-708] | ≥ 7.00 |
| CC(C)(O)COc1cc(NC(=O)c2cc(F)cc(C(F)(F)F)c2)c2c(c1)C(=O)NC2c1cc(F)ccc1Cl (stereo not shown) [Compound I-709] | ≥ 7.00 |
| CC1(Cc2cc(NC(=O)c3cc(F)cc(C(F)(F)F)c3)c3c(c2)C(=O)NC3c2cc(F)ccc2Cl)COC1 (stereo not shown) [Compound I-710] | ≥ 7.00 |
| O=C1NC(c2cc(F)ccc2Cl)c2c(NC(=O)c3cc(F)cc4cc[nH]c34)cc(Br)cc21 (stereo not shown) [Compound I-711] | ≥ 7.00 |
| O=C(Nc1cc(-c2ncc[nH]2)cc2c1C(c1cc(F)ccc1Cl)NC2=O)c1cc(F)cc(C(F)(F)F)c1 (stereo not shown) [Compound I-712] | ≥ 7.00 |
| CC(C)(O)c1cc(NC(=O)N2CCc3ccccc32)c2c(c1)C(=O)N[C@H]2c1cc(F)ccc1Cl [Compound I-713] | ≥ 7.00 |
| CC(C)(O)c1cc(NC(=O)N2CCc3ccccc32)c2c(c1)C(=O)N[C@@H]2c1cc(F)ccc1Cl [Compound I-714] | 4.00 to 5.00 |
| Cc1ccccc1C1NC(=O)c2cccc(NC(=O)c3cc(F)cc(C(C)C)c3)c21 (stereo not shown) [Compound I-715] | 5.00 to 6.00 |
| O=C1NC(c2cc(F)ccc2Cl)c2c(NC(=O)N3CCNc4ccccc43)cc(Br)cc21 (stereo not shown) [Compound I-716] | 5.00 to 6.00 |

| Compound | pIC50 |
| --- | --- |
| O=C(Nc1cccc2c1C(c1cccc(B(O)O)c1)NC2=O)c1cc(F)cc(C(F)(F)F)c1 (stereo not shown) [Compound I-717] | 4.00 to 5.00 |
| O=C(Nc1cccc2c1C(c1cccc(C3CC3)c1)NC2=O)c1cc(F)cc(C(F)(F)F)c1 (stereo not shown) [Compound I-718] | 4.00 to 5.00 |
| Nc1ccc(C(=O)Nc2cc(Br)cc3c2C(c2cc(F)ccc2Cl)NC3=O)cc1C(F)(F)F (stereo not shown) [Compound I-719] | 5.00 to 6.00 |
| O=C1NC(c2cc(F)ccc2Cl)c2c(NC(=O)N3CCCC4CCCC43)cc(Br)cc21 (stereo not shown) [Compound I-722] | 6.30 to 7.00 |
| N#CC1CN(c2cc(NC(=O)c3cc(F)cc(C(F)(F)F)c3)c3c(c2)C(=O)NC3c2cc(F)ccc2Cl)C1 (stereo not shown) [Compound I-723] | ≥ 7.00 |
| O=C(Nc1cccc2c1C(c1cc(F)ccc1Cl)NC2=O)c1cc(C(F)(F)F)cc(Cl)n1 (stereo not shown) [Compound I-724] | 5.00 to 6.00 |
| O=C(Nc1cccc2c1C(c1cc(F)ccc1Cl)NC2=O)c1cc(Cl)cc(C(F)(F)F)c1 (stereo not shown) [Compound I-725] | 6.00 to 6.30 |
| Nc1cc(C(F)(F)F)cc(C(=O)Nc2cccc3c2C(c2cc(F)ccc2Cl)NC3=O)n1 (stereo not shown) [Compound I-726] | 5.00 to 6.00 |
| Cn1c2c(c(NC(=O)c3cc(F)cc(C(F)(F)F)c3)cc1=O)C(c1cc(F)ccc1Cl)NC2=O (stereo not shown) [Compound I-727] | 4.00 to 5.00 |
| COC1CN(c2cc(NC(=O)c3cc(F)cc(C(F)(F)F)c3)c3c(c2)C(=O)NC3c2cc(F)ccc2Cl)C1 (stereo not shown) [Compound I-728] | 6.30 to 7.00 |
| O=C(Nc1cc(N2CC3(COC3)C2)cc2c1C(c1cc(F)ccc1Cl)NC2=O)c1cc(F)cc(C(F)(F)F)c1 (stereo not shown) [Compound I-729] | ≥ 7.00 |
| CC(C)(O)CNc1cc(NC(=O)c2cc(F)cc(C(F)(F)F)c2)c2c(c1)C(=O)NC2c1cc(F)ccc1Cl (stereo not shown) [Compound I-730] | ≥ 7.00 |
| O=C1NC(c2cc(F)ccc2Cl)c2c(NC(=O)c3coc4c(F)cc(F)cc34)cc(Br)cc21 (stereo not shown) [Compound I-731] | ≥ 7.00 |
| Cc1ncc(-c2cc(NC(=O)c3cc(F)cc(C(F)(F)F)c3)c3c(c2)C(=O)NC3c2cc(F)ccc2Cl)cn1 (stereo not shown) [Compound I-732] | ≥ 7.00 |
| O=C1N[C@H](c2cc(F)ccc2Cl)c2c(NC(=O)c3csc4ccccc34)cc(Br)cc21 [Compound I-733] | 5.00 to 6.00 |
| O=C1N[C@@H](c2cc(F)ccc2Cl)c2c(NC(=O)c3csc4ccccc34)cc(Br)cc21 [Compound I-734] | ≥ 7.00 |
| CS(=O)(=O)CCCOc1cc(NC(=O)c2cc(F)cc(C(F)(F)F)c2)c2c(c1)C(=O)NC2c1cc(F)ccc1Cl (stereo not shown) [Compound I-735] | 6.30 to 7.00 |
| O=C(Nc1cc(-c2ccc3nccn3c2)cc2c1C(c1cc(F)ccc1Cl)NC2=O)c1cc(F)cc(C(F)(F)F)c1 (stereo not shown) [Compound I-736] | ≥ 7.00 |
| O=C(Nc1cc(-c2ccc3ncccc3c2)cc2c1C(c1cc(F)ccc1Cl)NC2=O)c1cc(F)cc(C(F)(F)F)c1 (stereo not shown) [Compound I-737] | ≥ 7.00 |
| O=C(Nc1cc(-c2ccc3c(c2)OC(F)(F)O3)cc2c1C(c1cc(F)ccc1Cl)NC2=O)c1cc(F)cc(C(F)(F)F)c1 (stereo not shown) [Compound I-738] | 6.30 to 7.00 |
| CC(C)(O)COc1cc(NC(=O)c2cc(F)cc(C(F)(F)F)c2)c2c(c1)C(=O)N[C@@H]2c1cc(F)ccc1Cl [Compound I-739] | 5.00 to 6.00 |
| CC(C)(O)COc1cc(NC(=O)c2cc(F)cc(C(F)(F)F)c2)c2c(c1)C(=O)N[C@H]2c1cc(F)ccc1Cl [Compound I-740] | ≥ 7.00 |
| O=C(Nc1cc(-c2ccc3c(c2)OCO3)cc2c1C(c1cc(F)ccc1Cl)NC2=O)c1cc(F)cc(C(F)(F)F)c1 (stereo not shown) [Compound I-741] | ≥ 7.00 |

| Compound | pIC50 |
| --- | --- |
| CC(C)n1cc(-c2cc(NC(=O)c3cc(F)cc(C(F)(F)F)c3)c3c(c2)C(=O)N[C@@H]3c2cc(F)ccc2Cl)ccc1=O [Compound I-742] | 5.00 to 6.00 |
| CC(C)n1cc(-c2cc(NC(=O)c3cc(F)cc(C(F)(F)F)c3)c3c(c2)C(=O)N[C@H]3c2cc(F)ccc2Cl)ccc1=O [Compound I-743] | ≥ 7.00 |
| O=C(Nc1cc(-c2ccc(=O)n(C3CC3)c2)cc2c1[C@@H](c1cc(F)ccc1Cl)NC2=O)c1cc(F)cc(C(F)(F)F)c1 [Compound I-744] | 5.00 to 6.00 |
| O=C(Nc1cc(-c2ccc(=O)n(C3CC3)c2)cc2c1[C@H](c1cc(F)ccc1Cl)NC2=O)c1cc(F)cc(C(F)(F)F)c1 [Compound I-745] | ≥ 7.00 |
| O=C(Nc1cc(-c2ccc(=O)n(C3CC3)c2)nc2c1[C@@H](c1cc(F)ccc1Cl)NC2=O)c1cc(F)cc(C(F)(F)F)c1 [Compound I-746] | 5.00 to 6.00 |
| CC1(COc2cc(NC(=O)c3cc(F)cc(C(F)(F)F)c3)c3c(c2)C(=O)NC3c2cc(F)ccc2Cl)COC1 (stereo not shown) [Compound I-748] | ≥ 7.00 |
| Cc1c(F)cccc1[C@H]1NC(=O)c2cc(Br)cc(NC(=O)c3cc(F)cc(C(F)(F)F)c3)c21 [Compound I-749] | 5.00 to 6.00 |
| Cc1c(F)cccc1[C@@H]1NC(=O)c2cc(Br)cc(NC(=O)c3cc(F)cc(C(F)(F)F)c3)c21 [Compound I-750] | 6.30 to 7.00 |
| Cc1c(F)cccc1C1NC(=O)c2cc(Br)cc(NC(=O)c3cc(F)cc(C(F)(F)F)c3)c21 (stereo not shown) [Compound I-751] | 6.30 to 7.00 |
| O=C(Nc1cc(Br)cc2c(=O)[nH]n(-c3cc(F)ccc3Cl)c12)c1cc(F)cc(C(F)(F)F)c1 [Compound I-752] | 5.00 to 6.00 |
| O=C1NC(c2cc(F)ccc2Cl)c2c(NC(=S)c3cc(F)cc(C(F)(F)F)c3)cccc21 (stereo not shown) [Compound I-753] | 6.00 to 6.30 |
| O=C(Nc1cc(Br)cc2c1[C@@H](c1ccc(F)cc1Cl)NC2=O)c1cc(F)cc(C(F)(F)F)c1 [Compound I-754] | 5.00 to 6.00 |
| O=C(Nc1cc(Br)cc2c1[C@H](c1ccc(F)cc1Cl)NC2=O)c1cc(F)cc(C(F)(F)F)c1 [Compound I-755] | 6.30 to 7.00 |
| O=C(Nc1cc(Br)cc2c1C(c1ccc(F)cc1Cl)NC2=O)c1cc(F)cc(C(F)(F)F)c1 (stereo not shown) [Compound I-756] | 6.30 to 7.00 |
| Cc1ccc(F)cc1[C@H]1NC(=O)c2cc(Br)cc(NC(=O)c3cc(F)cc(C(F)(F)F)c3)c21 [Compound I-757] | 5.00 to 6.00 |
| Cc1ccc(F)cc1[C@@H]1NC(=O)c2cc(Br)cc(NC(=O)c3cc(F)cc(C(F)(F)F)c3)c21 [Compound I-758] | ≥ 7.00 |
| Cc1ccc(F)cc1C1NC(=O)c2cc(Br)cc(NC(=O)c3cc(F)cc(C(F)(F)F)c3)c21 (stereo not shown) [Compound I-759] | ≥ 7.00 |
| O=C1NC(c2cc(F)ccc2Cl)c2c(Nc3nncc4ccccc34)cc(Br)cc21 (stereo not shown) [Compound I-760] | 4.00 to 5.00 |
| O=C1NC(c2cc(F)ccc2Cl)c2c(Nc3nccc4cccnc34)cc(Br)cc21 (stereo not shown) [Compound I-761] | 4.00 to 5.00 |
| O=C1NC(c2cc(F)ccc2Cl)c2c(Nc3nccc4ccccc34)cc(Br)cc21 (stereo not shown) [Compound I-762] | 5.00 to 6.00 |
| O=C(Nc1cc(Br)cc2c1C(c1cc(Cl)ccc1Cl)NC2=O)c1cc(F)cc(C(F)(F)F)c1 (stereo not shown) [Compound I-763] | ≥ 7.00 |
